The source of these data is ChEMBL document CHEMBL1148266, “Synthesis and mitochondrial complex I inhibition of dihydroxy-cohibin A, non-THF annonaceous acetogenin analogue” (Bioorg Med Chem Lett, 2004).

The species named for the experiment is Bos taurus. Kind of experiment: Inhibition concentration was evaluated in NADH oxidase assay using bovine heart submitochondrial particles. In kind it is functional.

In general, IC50 refers to the midpoint of a concentration-inhibition curve. As for `CCCCCCCCCCCC[C@H](OCOC)[C@H](CC[C@@H](OCOC)[C@H](O)CCCCCCCCCCCCC1=C[C@H](C)OC1=O)OCOC`, the concentration for half-maximal inhibition (IC50) amounted to 4100 nM.

Take `CCCCCCCCCCCC[C@H](O)[C@@H](O)CC[C@@H](O)[C@H](O)CCCCCCCCCCCCC1=C[C@H](C)OC1=O` [DIHYDROXY-COHIBIN A]: the IC50 was 20 nM.
